This is an account of results in PMC4802219, “Improved dialytic removal of protein-bound uraemic toxins with use of albumin binding competitors: an in vitro human whole blood study” (Scientific Reports, 2016).

The target of data set [1] is T1, albumin (Homo sapiens, UniProt P02768).
T1 construct: from tissue; host or cells: human uraemic plasma
Briefly: Static RED assay of IS displacement by ibuprofen with or without furosemide in normal human plasma. In kind it is binding. The following applies: normal human plasma spiked with IS 150 μmol/l, ibuprofen 0 to 931 μmol/l, furosemide 0.18 mmol/l (Fig. 3).

Data set [2] has as its target T1, albumin. Briefly: Static RED assay of PBUT displacement by binding competitors in uraemic plasma. The following applies: for displacement of IS and PCS: RED assay (Fig. 1); for increase of free fraction of IS / increase of free fraction of PCS: displacer 1 mmol/l, RED 4 h 37 °C, compared to PBS. On the procedure: We evaluated the albumin binding of uraemic toxins and their interaction with displacers in human uraemic plasma utilizing the RED device. Candidate displacers were mixed with uraemic plasma before incubation. The test mixture (300 μl) was added into the sample chamber, while the buffer chamber was filled with 500 μl PBS. After 4 hours of incubation (37 °C, 250 rpm), samples were collected from both chambers for HPLC analysis. The concentration of all displacers and negative control (antipyrine) in the incubations was 1 mmol/l. For furosemide, incubations at final concentration of 0.18 mmol/l were also included since this is the clinically relevant concentration for intravenous administration.
(§1) Blood samples were centrifuged at 13200 rpm for 3 mins. The plasma layer was collected and stored at −80 °C. Plasma samples (50 μl) were precipitated with 100 μl of ice-cold acetonitrile to precipitate the proteins. The samples were then vortexed thoroughly and centrifuged at 3000 rpm for 10 minutes. The supernatant, containing the uraemic toxins and displacers, was collected and further diluted 1:1 with deionized water before HPLC injection. The dialysate samples (100 μl) were diluted with 100 μl water before HPLC injection.
Measurements were calibrated with standard curves for all analytes, and were linear over the concentration range of the experiments. Measurements were performed on an Agilent 1100 system (Agilent Technologies, Dover, DE, USA) equipped with a C18 column (Kinetex 5 μm C18 100 Å, LC Column 150 × 4.6 mm, Phenomenex, Torrance, CA, USA). Mobile phase A: ammonium formate, 20 mmol/l, pH 4. Mobile phase B: acetonitrile. The gradient profile for mobile phase B was: 0–2 min, 15%; 11–14 min, 100%; 14.2–16 min, 15%; and the flow rate gradient was 0–11.2 min, 0.4 ml/min; 11.2–16 min 0.5 ml/min. […] HIPA and furosemide were detected at 230 nm with the UV-Vis detector. The injection volume was 5 μl.
For PBUT displacement in RED assays, Dunnett’s post-analysis comparisons to PBS were performed by one way ANOVA using GraphPad Prism (GraphPad Software, La Jolla, CA).

On the set-up of data set [3]: method as in PMID 973966, PMID 3514052. The following applies: cited from earlier work.
The target of data set [4] is T1, albumin. Briefly: Single-pass haemodialysis model with uraemic human whole blood and pre-dialyzer displacer infusion. The method, then: All experiments were carried out in triplicate.
as §1
Measurements were calibrated with standard curves for all analytes, and were linear over the concentration range of the experiments. Measurements were performed on an Agilent 1100 system (Agilent Technologies, Dover, DE, USA) equipped with a C18 column (Kinetex 5 μm C18 100 Å, LC Column 150 × 4.6 mm, Phenomenex, Torrance, CA, USA). Mobile phase A: ammonium formate, 20 mmol/l, pH 4. Mobile phase B: acetonitrile. […] HIPA and furosemide were detected at 230 nm with the UV-Vis detector. The injection volume was 5 μl.

[5] abbreviates: intervention phase vs baseline phase, P < 0.0001.

T1 sequence (P02768 25-609): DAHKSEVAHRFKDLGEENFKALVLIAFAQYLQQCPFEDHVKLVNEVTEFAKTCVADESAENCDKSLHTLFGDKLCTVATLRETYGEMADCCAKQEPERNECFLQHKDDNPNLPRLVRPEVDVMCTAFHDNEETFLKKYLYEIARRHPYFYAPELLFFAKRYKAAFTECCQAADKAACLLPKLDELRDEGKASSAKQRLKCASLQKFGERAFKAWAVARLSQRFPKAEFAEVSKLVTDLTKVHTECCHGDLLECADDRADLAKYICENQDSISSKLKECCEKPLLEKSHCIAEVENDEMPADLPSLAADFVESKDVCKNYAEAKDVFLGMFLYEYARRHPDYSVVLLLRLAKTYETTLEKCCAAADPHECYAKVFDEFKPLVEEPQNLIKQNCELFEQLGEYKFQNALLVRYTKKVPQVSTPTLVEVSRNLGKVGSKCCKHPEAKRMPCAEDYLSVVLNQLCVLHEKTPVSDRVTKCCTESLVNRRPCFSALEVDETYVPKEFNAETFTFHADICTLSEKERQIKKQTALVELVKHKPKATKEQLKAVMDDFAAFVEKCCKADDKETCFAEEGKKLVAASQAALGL

For the compound `NS(=O)(=O)c1cc(C(=O)O)c(NCc2ccco2)cc1Cl` [furosemide], the “effect on IS displacement by ibuprofen when given simultaneously” value in data set [1] was “boost the IS displacement effect of ibuprofen”. For the same compound, the “increase in the free fraction of IS” value in data set [2] (furosemide alone at 0.18 mmol/l (Fig. 1)) was “did not induce a significant increase”. Also, in data set [2] (uraemic plasma), the “displacement of IS and PCS” value was “limited displacement effect”; the “increase of free fraction of IS” value is ~1.3 fold; the “increase of free fraction of PCS” value is given as ~1.3 fold. In addition, the “displacement of HIPA” value in data set [2] (uraemic plasma, RED assay (Fig. 2)) was “significant displacement”.

Consider `Cc1cc(=O)n(-c2ccccc2)n1C` [antipyrine], for which, in data set [3], the protein binding capability result is “lacks protein binding capability”. The “change in uraemic toxin protein binding” value in data set [2] (uraemic plasma, negative control 1 mmol/l (Figs 1 and 2)) is “did not lead to a significant change”.

Consider `N[C@@H](Cc1c[nH]c2ccccc12)C(=O)O` [tryptophan, L-Tryptophan], for which the HIPA removal entry in data set [4] (human whole blood, HIPA 400 μmol/l (1 mmol/l with tryptophan) (Fig. 6)) is listed as “virtually unaffected”. The “fractional removal of IAA during displacer infusion” value in data set [4] (human whole blood, IAA 15 μmol/l, Qb 12.5 ml/min, Qd 25 ml/min, mean ± SEM, N = 3) came out at 27.1 ± 0.3%. Also, the “fractional removal of IS during displacer infusion” value in data set [4] (human whole blood, IS 150 μmol/l, Qb 12.5 ml/min, Qd 25 ml/min, mean ± SEM, N = 3) was found to be 10.5 ± 0.1%. In addition, in data set [4] (setting [5]), the “increase of IAA removal” value is 1.3 fold and the “increase of IS removal” value stood at 1.4 fold. Also, in data set [2] (uraemic plasma), the “displacement of IS and PCS” value is “more efficiently than HIPA”; the “increase of free fraction of IS” value is listed as ~2 fold; the “increase of free fraction of PCS” value is ~2 fold.
